Data: patent US4308210A, “Nanaomycin B and therapeutic compositions containing same” (The Kitasato Institute, priority 1976, dated 1981)
In brackets after ≈: the same amount, converted by molar mass. Entries after “also recorded” stand apart in the source; their conditions may differ. Read-outs that look alike come from different tables or passages of the source.

Experiments:
[1] = tested on: Mycoplasma gallisepticum S-6; experiment: Antimicrobial spectrum, MIC, PPLO agar; type: cell-based; conditions: Mycoplasmoides gallisepticum, S6, 192 h
Procedure: (§1) H Hokken PPLO agar (pH 7.8, 8 days, 37° C.)
(§2) E Eiken PPLO agar (pH 7.8, 8 days, 37° C.)
(§3) MIC Minimal inhibitory concentration

[2] = tested on: Mycoplasma gallisepticum 333P (Spiramycin resistant); experiment: Antimicrobial spectrum, MIC, PPLO agar; type: cell-based; conditions: for MIC: Mycoplasmoides gallisepticum, 192 h
Procedure: as §1, §2, §3

[3] = tested on: Acholeplasma laidlawii (A) PG8; experiment: Antimicrobial spectrum, MIC, PPLO agar; type: cell-based
Procedure: as §1, §2, §3

[4] = tested on: Mycoplasma gallisepticum KP-13; experiment: Antimicrobial spectrum, MIC, PPLO agar; type: cell-based; conditions: Mycoplasmoides gallisepticum, KP13, 192 h
Procedure: as §1, §2, §3

[5] = tested on: Acholeplasma laidlawii (B) Bml; experiment: Antimicrobial spectrum, MIC, PPLO agar; type: cell-based; conditions: 192 h
Procedure: as §1, §2, §3

Sarcina lutea PCI 1001 = experiment: Antimicrobial spectrum, MIC, nutrient agar; type: cell-based; conditions: Micrococcus luteus, PCI1001, 48 h; nutrient agar (pH 7.0, 2 days, 37° C.)
[6] = tested on: Trichophyton interdigitale; experiment: Antimicrobial spectrum, MIC, potato agar; type: cell-based; conditions: 96 h, potato agar (pH 6.4, 4 days, 27° C.)
[7] = tested on: Aspergillus niger ATCC 6275; experiment: Antimicrobial spectrum, MIC, potato agar; type: cell-based; conditions: ATCC6275, 96 h, potato agar (pH 6.4, 4 days, 27° C.)
Procedure: (§4) P potato agar (pH 6.4, 4 days, 27° C.)
as §3

Saccharomyces sake = experiment: Antimicrobial spectrum, MIC, potato agar; type: cell-based; conditions: 96 h, potato agar (pH 6.4, 4 days, 27° C.)
Procedure: as §4, §3

Microsporum gypseum 704 = experiment: Antimicrobial spectrum, MIC, potato agar; type: cell-based; conditions: Nannizzia gypsea, 704, 96 h; potato agar (pH 6.4, 4 days, 27° C.)
Procedure: as §4, §3

Trichophyton verrucosum = experiment: Treatment of dermatomycosis of cattle caused by mass infection; type: in vivo; design: key: +++: complete removal of scales and recovered; ++: a little scales remained; +: removal of a part of scales; -: no removal of scale and no recovery
Procedure: When dermatomycosis of cattle caused by mass infection of Trichophyton verrucosum is treated with nanaomycin B, nanaomycin B is dissolved or suspended in a suitable carrier, for example, olive oil, and is coated on the affected part directly with or without removal of the scales. […] The results obtained by coating nanaomycin B once and by twice coatings (the second coating is carried out a week after the first coating) are shown in tables 2 and 3, respectively.

Piricularia oryzae = experiment: microbe, parasite or virus in culture; type: cell-based; conditions: 96 h, pH 6.4
Solubility = type: physicochemical
Mycoplasma gallisepticum = experiment: Therapeutic effect on chronic respiratory disease of chickens; type: in vivo
mycoplasma [8] = experiment: Antimycoplasma activity, paper disc method; type: cell-based
Procedure: Inhibitory zone is assayed by paper disc method (Eiken PPLO agar, pH 7.8,

Trichophyton rubrum = experiment: Antimicrobial spectrum, MIC, potato agar; type: cell-based; conditions: 96 h, potato agar (pH 6.4, 4 days, 27° C.)
Trichophyton roseum = experiment: Antimicrobial spectrum, MIC, potato agar; type: cell-based; conditions: 96 h, potato agar (pH 6.4, 4 days, 27° C.)
mycoplasma [9] = experiment: Activity against mycoplasma; type: cell-based; conditions: in words
Procedure: as §1, §2, §3

[10] = tested on: Tricophyton metagrophytes; experiment: Treatment of dermatomycosis at the back of guinea pigs; type: in vivo; conditions: 0.01-1% solution in propylene glycol-ethanol (3:1, v/v), once daily for 8 days
Mycoplasma gallinarum = experiment: Antimicrobial spectrum, MIC, PPLO agar; type: cell-based; conditions: Mycoplasmopsis gallinarum, 192 h, Hokken PPLO agar (pH 7.8, 8 days, 37° C.)
Procedure: as §1, §3

Mycoplasma iners = experiment: Antimicrobial spectrum, MIC, PPLO agar; type: cell-based; conditions: Mycoplasmopsis iners, 192 h; Hokken PPLO agar (pH 7.8, 8 days, 37° C.)
Procedure: as §1, §3

[11] = tested on: Staphylococcus aureus FDA 209P; experiment: Antimicrobial spectrum, MIC, nutrient agar; type: cell-based; conditions: FDA209P, 48 h, nutrient agar (pH 7.0, 2 days, 37° C.)
[12] = pH 7.8, Eiken PPLO agar (pH 7.8, 8 days, 37° C.)
[13] = pH 7.8, Hokken PPLO agar (pH 7.8, 8 days, 37° C.)
[14] = coating once, I direct coating on affected part, 0.1 mg/ml
[15] = coating once, I direct coating on affected part, 1 mg/ml
[16] = coating once, I direct coating on affected part, 10 mg/ml
[17] = coating once, II coating after removing the scales, 0.1 mg/ml
[18] = coating once, II coating after removing the scales, 1 mg/ml
[19] = coating once, II coating after removing the scales, 10 mg/ml
[20] = twice coatings (second a week after the first), I direct coating on affected part, 0.1 mg/ml
[21] = twice coatings (second a week after the first), I direct coating on affected part, 1 mg/ml
[22] = twice coatings (second a week after the first), I direct coating on affected part, 10 mg/ml
[23] = twice coatings (second a week after the first), II coating after removing the scales, 0.1 mg/ml
[24] = twice coatings (second a week after the first), II coating after removing the scales, 1 mg/ml
[25] = twice coatings (second a week after the first), II coating after removing the scales, 10 mg/ml

## CC1OC(CC(=O)O)CC2C(=O)c3cccc(O)c3C(=O)C12O (stereo not drawn) [Nanaomycin B]
[1]; [12]
  MIC: 0.1 µg/mL (≈ 0.312 µM)
[1]; [13]
  MIC: < 0.013 µg/mL
[2]; [12]
  MIC: 0.05 µg/mL (≈ 0.156 µM)
[2]; [13]
  MIC: 0.013 µg/mL (≈ 0.0406 µM)
[2]; in words
  antimicrobial activity on spiramycin-resistant Mycoplasma gallisepticum: high antimicrobial activity
[3]; Acholeplasma laidlawii, 192 h, Hokken PPLO agar (pH 7.8, 8 days, 37° C.), read-out: MIC
  MIC: > 25 µg/mL
[3]; Eiken PPLO agar (pH 7.8, 8 days, 37° C.)
  MIC: > 25 µg/mL
[4]; [13]
  MIC: < 0.013 µg/mL
[4]; Eiken PPLO agar (pH 7.8, 8 days, 37° C.), read-out: MIC
  MIC: 0.1 µg/mL (≈ 0.312 µM)
[5]; [12]
  MIC: > 25 µg/mL
[5]; [13]
  MIC: 25 µg/mL (≈ 78.1 µM)
Sarcina lutea PCI 1001
  MIC: 2 µg/mL (≈ 6.24 µM)
[6]
  MIC: 12.5 µg/mL (≈ 39 µM)
[7]
  MIC: 62.5 µg/mL (≈ 195 µM)
Saccharomyces sake
  MIC: 62.5 µg/mL (≈ 195 µM)
Microsporum gypseum 704
  MIC: 12.5 µg/mL (≈ 39 µM)
Trichophyton verrucosum; [14]
  Result after 1 week: ++
  Result after 2 weeks: ++
  Result after 3 weeks: +++
  Result after 4 weeks: +++
Trichophyton verrucosum; [15]
  Result after 1 week: +++
  Result after 2 weeks: +++
  Result after 3 weeks: +++
  Result after 4 weeks: +++
Trichophyton verrucosum; [16]
  Result after 1 week: +++
  Result after 2 weeks: +++
  Result after 3 weeks: +++
  Result after 4 weeks: +++
Trichophyton verrucosum; [17]
  Result after 1 week: +++
  Result after 2 weeks: +++
  Result after 3 weeks: +++
  Result after 4 weeks: +++
Trichophyton verrucosum; [18]
  Result after 1 week: +++
  Result after 2 weeks: +++
  Result after 3 weeks: +++
  Result after 4 weeks: +++
Trichophyton verrucosum; [19]
  Result after 1 week: +++
  Result after 2 weeks: +++
  Result after 3 weeks: +++
  Result after 4 weeks: +++
Trichophyton verrucosum; [20]
  Result after 1 week: ++
  Result after 2 weeks: +++
  Result after 3 weeks: +++
  Result after 4 weeks: +++
Trichophyton verrucosum; [21]
  Result after 1 week: ++
  Result after 2 weeks: ++
  Result after 3 weeks: +++
  Result after 4 weeks: +++
Trichophyton verrucosum; [22]
  Result after 1 week: +++
  Result after 2 weeks: +++
  Result after 3 weeks: +++
  Result after 4 weeks: +++
Trichophyton verrucosum; [23]
  Result after 1 week: +++
  Result after 2 weeks: +++
  Result after 3 weeks: +++
  Result after 4 weeks: +++
Trichophyton verrucosum; [24]
  Result after 1 week: +++
  Result after 2 weeks: +++
  Result after 3 weeks: +++
  Result after 4 weeks: +++
Trichophyton verrucosum; [25]
  Result after 1 week: +++
  Result after 2 weeks: +++
  Result after 3 weeks: +++
  Result after 4 weeks: +++
Piricularia oryzae
  MIC: 15.6 µg/mL (≈ 48.7 µM)
Solubility
  Solubility in methanol, ethanol, ethylacetate, chloroform, acetone and ether: Easily soluble
  Solubility in n-hexane, petroleum ether and water: Insoluble
Mycoplasma gallisepticum
  therapeutic effect on chronic respiratory disease: therapeutic effect
Mycoplasma [8]; Mycoplasma, 24 h, 10 μg/ml, Eiken PPLO agar, pH 7.8, 37° C., 1 day, read-out: Inhibitory Zone
  zone of inhibition at 10 µg/mL: 22.7 mm
Mycoplasma [8]; Mycoplasma, 24 h, 100 μg/ml, Eiken PPLO agar, pH 7.8, 37° C., 1 day, read-out: Inhibitory Zone
  zone of inhibition at 100 µg/mL: 32.6 mm
Mycoplasma [8]; in words
  antimycoplasma activity compared with ethylkalafunginate and deoxyfrenolicin: superior
Trichophyton rubrum
  MIC: 3.1 µg/mL (≈ 9.68 µM)
Trichophyton roseum
  MIC: 12.5 µg/mL (≈ 39 µM)
Mycoplasma [9]
  activity against mycoplasma: high activity; also recorded: especially strong activity
[10]
  therapeutic effect on erythema and scales: excellent therapeutic effect
Mycoplasma gallinarum
  MIC: 3.12 µg/mL (≈ 9.74 µM)
Mycoplasma iners
  MIC: 3.12 µg/mL (≈ 9.74 µM)
[11]
  MIC: 3.9 µg/mL (≈ 12.2 µM)
